Columns and labels:
[1] = target: T1, Dimer of Gag-Pol polyprotein [501-599,Q508K,L534I,L564I,C568A,C596A] (Human immunodeficiency virus 1, UniProt P03367, C568A/C596A/L534I/L564I/Q508K); test: Protease Inhibition Assay; details: pH 6.4; 25 °C
T1 construct: 501-599
Protocol: The Ki values were determined using fluorogenic substrate, 2-(aminobenzoyl)-Thr-Ile-Nle-Phe(p-NO2)-Gln-ArgNH2. A standard curve relating changes in fluorescent intensity to changes in concentration of product was used to convert fluorescent changes into molar velocities. The amount of cleavage was determined by HPLC.

[2] = target: T1, Dimer of Gag-Pol polyprotein [501-599,Q508K,L534I,L564I,C568A,C596A]; test: Protease Inhibition Assay; details: pH 6.4; 25 °C; remark: listed apart in the source

In the case of `O=C(N[C@H]1c2ccccc2C[C@H]1O)[C@H](Cc1ccc(OCCN2CCOCC2)cc1)C[C@H](O)CN1C(=O)[C@@H](Cc2ccccc2)C[C@@H]1Cc1ccccc1` [(2R,4S)-5-[(3S,5R)-3,5-dibenzyl-2-oxopyrrolidin-1-yl]-4-hydroxy-N-[(1S,2R)-2-hydroxy-2,3-dihydro-1H-inden-1-yl]-2-({4-[2-(morpholin-4-yl)ethoxy]phenyl}methyl)pentanamide], the Ki [1] is reported as 0.14 nM and the IC50 [2] is reported as 83 nM.
`O=C(N[C@H]1c2ccccc2C[C@H]1O)[C@H](Cc1ccccc1)C[C@H](O)CN1C(=O)[C@@H](Cc2ccccc2)C[C@@H]1Cc1ccc(OCCN2CCOCC2)cc1` [pyrrolidinone based inhibitor 1g] was tested, and the Ki [1] was 1.3 nM and the IC50 [2] was 960 nM.
In the case of `O=C(N[C@H]1c2ccccc2C[C@H]1O)[C@H](Cc1ccc(OCCO)cc1)C[C@H](O)CN1C(=O)[C@@H](Cc2ccccc2)C[C@@H]1Cc1ccccc1` [(2R,4S)-5-[(3S,5R)-3,5-dibenzyl-2-oxopyrrolidin-1-yl]-4-hydroxy-N-[(1S,2R)-2-hydroxy-2,3-dihydro-1H-inden-1-yl]-2-{[4-(2-hydroxyethoxy)phenyl]methyl}pentanamide], the Ki [1] is reported as 0.02 nM and the IC50 [2] is reported as 94 nM.
Work on `NC(=O)COc1ccc(C[C@H](C[C@H](O)CN2C(=O)[C@@H](Cc3ccccc3)C[C@@H]2Cc2ccccc2)C(=O)N[C@H]2c3ccccc3C[C@H]2O)cc1` [(2R,4S)-2-{[4-(carbamoylmethoxy)phenyl]methyl}-5-[(3S,5R)-3,5-dibenzyl-2-oxopyrrolidin-1-yl]-4-hydroxy-N-[(1S,2R)-2-hydroxy-2,3-dihydro-1H-inden-1-yl]pentanamide] yielded a Ki [1] of 0.07 nM and an IC50 [2] of 360 nM.
In the case of `O=C(N[C@H]1c2ccccc2C[C@H]1O)[C@H](Cc1ccc(Cc2ccccc2)cc1)C[C@H](O)CN1C(=O)[C@@H](Cc2ccccc2)C[C@@H]1Cc1ccccc1` [(2R,4S)-2-[(4-benzylphenyl)methyl]-5-[(3S,5R)-3,5-dibenzyl-2-oxopyrrolidin-1-yl]-4-hydroxy-N-[(1S,2R)-2-hydroxy-2,3-dihydro-1H-inden-1-yl]pentanamide], the Ki [1] is reported as 0.11 nM and the IC50 [2] is reported as 920 nM.
For `O=C(N[C@H]1c2ccccc2C[C@H]1O)[C@H](Cc1ccccc1)C[C@H](O)CN1C(=O)[C@@H](Cc2ccccc2)C[C@@H]1Cc1ccc(OCC(=O)N2CCOCC2)cc1` [pyrrolidinone based inhibitor 1k], the Ki [1] was 0.1 nM and the IC50 [2] was 200 nM.
With `O=C(N[C@H]1c2ccccc2C[C@H]1O)[C@H](Cc1ccc(OCCOC(=O)N2CCOCC2)cc1)C[C@H](O)CN1C(=O)[C@@H](Cc2ccccc2)C[C@@H]1Cc1ccccc1` [2-{4-[(2R)-2-[(2S)-3-[(3S,5R)-3,5-dibenzyl-2-oxopyrrolidin-1-yl]-2-hydroxypropyl]-2-{[(1S,2R)-2-hydroxy-2,3-dihydro-1H-inden-1-yl]carbamoyl}ethyl]phenoxy}ethyl morpholine-4-carboxylate] the Ki [1] was 0.05 nM and the IC50 [2] was 240 nM.
For `O=C(N[C@H]1c2ccccc2C[C@H]1O)[C@H](Cc1ccc(O)cc1)C[C@H](O)CN1C(=O)[C@@H](Cc2ccccc2)C[C@@H]1Cc1ccccc1` [(2R,4S)-5-[(3S,5R)-3,5-dibenzyl-2-oxopyrrolidin-1-yl]-4-hydroxy-N-[(1S,2R)-2-hydroxy-2,3-dihydro-1H-inden-1-yl]-2-[(4-hydroxyphenyl)methyl]pentanamide], the Ki [1] was 0.06 nM and the IC50 [2] was 320 nM.
For `O=C(N[C@H]1c2ccccc2C[C@H]1O)[C@H](Cc1ccc(OCC(=O)N2CCOCC2)cc1)C[C@H](O)CN1C(=O)[C@@H](Cc2ccccc2)C[C@@H]1Cc1ccccc1` [(2R,4S)-5-[(3S,5R)-3,5-dibenzyl-2-oxopyrrolidin-1-yl]-4-hydroxy-N-[(1S,2R)-2-hydroxy-2,3-dihydro-1H-inden-1-yl]-2-({4-[2-(morpholin-4-yl)-2-oxoethoxy]phenyl}methyl)pentanamide], the Ki [1] was 0.02 nM and the IC50 [2] was 63 nM.
Compound `O=C(N[C@H]1c2ccccc2C[C@H]1O)[C@H](Cc1ccccc1)C[C@H](O)CN1C(=O)[C@@H](Cc2ccccc2)C[C@@H]1Cc1ccc(OCCO)cc1` [(2R,4S)-2-benzyl-5-[(3S,5R)-3-benzyl-5-{[4-(2-hydroxyethoxy)phenyl]methyl}-2-oxopyrrolidin-1-yl]-4-hydroxy-N-[(1S,2R)-2-hydroxy-2,3-dihydro-1H-inden-1-yl]pentanamide] has a Ki [1] of 0.3 nM and an IC50 [2] of 480 nM.
Work on `O=C(N[C@H]1c2ccccc2C[C@H]1O)[C@H](Cc1ccccc1)C[C@H](O)CN1C(=O)[C@@H](Cc2ccccc2)C[C@@H]1Cc1ccc(Cc2ccccc2)cc1` [(2R,4S)-2-benzyl-5-[(3S,5R)-3-benzyl-5-[(4-benzylphenyl)methyl]-2-oxopyrrolidin-1-yl]-4-hydroxy-N-[(1S,2R)-2-hydroxy-2,3-dihydro-1H-inden-1-yl]pentanamide] yielded a Ki [1] of 0.13 nM and an IC50 [2] of 550 nM.
Work on `O=C(N[C@H]1c2ccccc2C[C@H]1O)[C@H](Cc1ccccc1)C[C@H](O)CN1C(=O)[C@@H](Cc2ccccc2)C[C@@H]1Cc1ccccc1` [pyrrolidinone scaffold 8b] yielded an IC50 [2] of 0.05 nM.
Compound `O=C(N[C@H]1c2ccccc2C[C@H]1O)[C@H](Cc1ccc(OCc2ccccn2)cc1)C[C@H](O)CN1C(=O)[C@@H](Cc2ccccc2)C[C@@H]1Cc1ccccc1` [(2R,4S)-5-[(3S,5R)-3,5-dibenzyl-2-oxopyrrolidin-1-yl]-4-hydroxy-N-[(1S,2R)-2-hydroxy-2,3-dihydro-1H-inden-1-yl]-2-{[4-(pyridin-2-ylmethoxy)phenyl]methyl}pentanamide] has a Ki [1] of 0.07 nM and an IC50 [2] of 380 nM.
`COCCOCCOc1ccc(C[C@H](C[C@H](O)CN2C(=O)[C@@H](Cc3ccccc3)C[C@@H]2Cc2ccccc2)C(=O)N[C@H]2c3ccccc3C[C@H]2O)cc1` [(2R,4S)-5-[(3S,5R)-3,5-dibenzyl-2-oxopyrrolidin-1-yl]-4-hydroxy-N-[(1S,2R)-2-hydroxy-2,3-dihydro-1H-inden-1-yl]-2-({4-[2-(2-methoxyethoxy)ethoxy]phenyl}methyl)pentanamide] showed a Ki [1] of 0.02 nM and an IC50 [2] of 93 nM.
`CN1CCN(C(=O)COc2ccc(C[C@H](C[C@H](O)CN3C(=O)[C@@H](Cc4ccccc4)C[C@@H]3Cc3ccccc3)C(=O)N[C@H]3c4ccccc4C[C@H]3O)cc2)CC1` [(2R,4S)-5-[(3S,5R)-3,5-dibenzyl-2-oxopyrrolidin-1-yl]-4-hydroxy-N-[(1S,2R)-2-hydroxy-2,3-dihydro-1H-inden-1-yl]-2-({4-[2-(4-methylpiperazin-1-yl)-2-oxoethoxy]phenyl}methyl)pentanamide] showed a Ki [1] of 0.05 nM and an IC50 [2] of 130 nM.
For `O=C(N[C@H]1c2ccccc2C[C@H]1O)[C@H](Cc1ccccc1)C[C@H](O)CN1C(=O)[C@@H](Cc2ccccc2)C[C@@H]1Cc1ccc(O)cc1` [(2R,4S)-2-benzyl-5-[(3S,5R)-3-benzyl-5-[(4-hydroxyphenyl)methyl]-2-oxopyrrolidin-1-yl]-4-hydroxy-N-[(1S,2R)-2-hydroxy-2,3-dihydro-1H-inden-1-yl]pentanamide], the IC50 [2] was 200 nM.
